Measured values: patent US6693073B2, “Pulmonary delivery of active agents” (Emisphere Technologies, Inc., priority 1998, dated 2004)
Where two headings read alike, the source gives them in different places.

What was measured:
[1] = rat, in vivo
Method: Each rat was weighed and identified using an indelible marker and anesthetized by intraperitoneal injection of ketamine: Xylazine: Acepromazine cocktail, at 80 mg/kg, 10 mg/kg and 2.0 mg/kg, respectively and returned to its cage. The rat was transferred to the surgical bench and placed on a heating blanket thermostatically controlled via rectal probe, once deep anesthesia was achieved.
The right jugular vein of each rat was catheterized using silicone tubing and the patency of the catheter was confirmed by slowly flushing the cannula with 200 μl heparin saline and then withdrawing 100 μl of blood. The cannula was then cleared with 200 μl of heparinized saline solution.
An endotrachcal tube was inserted using a fiber optic laryngoscope. The syringe (Hamilton syringe) of the instillator was attached to the endotracheal tube and used to instill solution (100 μl) in the airways. The endotracheal tube was removed following administration, and the breathing rate was monitored throughout the remainder of the study.
Blood samples (500 μl) were withdrawn at 0, 10, 30, 60, 90, 120 and 180 min and the cannula flushed with approximately 200 μl of heparinized saline solution. The blood was collected in 1 ml tuberculin syringes (containing 100 μl heparin 20 μ/ml) placed directly into microcentrifuge tubes.
Blood samples were immediately centrifuged at 10 000 rpm for 4 min.
Average insulin plasma concentrations over time were subjected to standard compartmental and non-compartmental pharmacokinetic analysis.
Average concentrations of insulin were fitted to the following equation:
CPins=A(e^−ke 1+e^−ka 1) (Eq.1)
where A=D ka/Vd (ka−ke) is the concentration of drug in the body at time zero, ka is the first order absorption rate constant, ke is the first order elimination rate constant.
The area under the lung concentration-time curve (AUC0−1) was calculated by the trapezoidal rule. Interpolation to infinity was performed by dividing the last Cins measured by the first-order rate constant of the terminal phase. The total area under the curve was estimated by the summation of these two compounds.
The elimination half-life was calculated from 0.693/ke where ke is the slope of the terminal phase of the log of the concentration-time profile.
The non-compartment analysis for insulin plasma concentrations over time was performed using standard techniques. The time to peak CPins (Tmax) and peak CPins (Cmax) were determined from the non-fitted average plasma concentrations (CPins) versus-time profiles for the treatments. AUC was calculated by the trapezoidal rule. MRT was not calculated due to a lack of data following intravenous administration from which to calculate pharmacokinetic parameters.

plasma glucose = assay: Plasma glucose pharmacodynamics after lung spray-IT instillation to rats; type: in vivo, Sprague Dawley female rats
Method: Determination of fasting plasma glucose levels was performed using the Ektachem DT Slide (GLU) method. The analysis is based on the enzyme-catalyzed reaction of glucose with molecular oxygen, followed by a second reaction that produces a highly-colored red dye. The intensity of the color is proportional to the amount of glucose in the sample.
The percentage minimum plasma glucose concentration (%MPGC) and the time T to attain each %MPGC (T%MPGC) were determined from the average plasma glucose levels versus-time profiles for the treatments.
The area above the curve effect (AACE) was calculated as follows:
AACE=Total area−AUCE (Eq.2)
where AUCE represents the area under the curve effect calculated using the trapezoidal rule.
The percentage total reduction in plasma glucose from 0→t (%TRPG 0→t) was determined using the following equation:
%TRPG0→t=100(AACE/total area) (Eq.3)

[2] = Serum insulin after pulmonary instillation of insulin with carrier compound (Example 4); type: in vivo, rat; settings: rats, spray instillation into airway; insulin 0.03 mg/kg with carrier compound 16 mg/kg
Method: Carrier compound B, carrier compound C sodium salt, and carrier compound D in Table 10 were tested as follows.
An endotracheal tube (spray instillator from Penn Century of Philadelphia, Pa.) with a syringe (Hamilton syringe) attached to the endotracheal tube was inserted using a fiber optic laryngoscope.

Solubility of carriers = type: physicochemical; settings: water, thermodynamic from solid; clear solution, pH 6.85
[3] = lung spray-IT, insulin 0.01 mg/kg alone
[4] = lung spray-IT, insulin 0.05 mg/kg alone
[5] = spray-IT, porcine insulin 0.01 mg/kg, Table 3
[6] = spray-IT, porcine insulin 0.05 mg/kg, Table 3
[7] = spray-IT, porcine insulin 0.1 mg/kg, Table 3
[8] = spray-IT, porcine insulin 0.5 mg/kg, Table 3
[9] = spray-IT, porcine insulin 1.0 mg/kg, Table 3

Porcine Insulin: Lyophilized porcine insulin 25.9 IU/mg (Emisphere Technologies)
half-life of decline in plasma concentrations [1]: 27.8 to 142.4 min | t½ (abs) ([1]; 0.001 mg/kg): 27.8 min | t½ (elim) ([1]; 0.001 mg/kg): 3.0 min | t½ (abs) ([1]; 0.005 mg/kg): 42.6 min | t½ (elim) ([1]; 0.005 mg/kg): 3.0 min | tmax ([1]; 0.01 mg/kg): 10 min | tmax ([1]; 0.05 mg/kg): 10 min | AUC ([1]; 0.1 mg/kg): 9517.5 | tmax ([1]; 0.1 mg/kg): 10 min | AUC ([1]; 0.5 mg/kg): 60345 | tmax ([1]; 0.5 mg/kg): 30 min | AUC ([1]; 1 mg/kg): 178143.5 | tmax ([1]; 1 mg/kg): 30 min | relative bioavailability ([1]; sc): 12.46% | % MPGC (plasma glucose; [3]): 70.02% | % TRPG0-3 hr (plasma glucose; [3]): 10.5±1.5% | AACE0-t (plasma glucose; [3]): 1892 ± 989 mcU/min/ml | T % MPGC (plasma glucose; [3]): 180 min | % TRPG0-3 hr (plasma glucose; lung spray-IT, insulin 0.01 mg/kg alone, listed as Insulin alone): 10.5 ± 1.5% | % MPGC (plasma glucose; [4]): 35.7% | % TRPG0-3 hr (plasma glucose; [4]): 47±10% | AACE0-t (plasma glucose; [4]): 8497 ± 1716 mcU/min/ml | T % MPGC (plasma glucose; [4]): 120 min | % TRPG0-3 hr (plasma glucose; lung spray-IT, insulin 0.05 mg/kg alone, listed as Insulin alone): 47 ± 10% | % MPGC (plasma glucose; [5]): 70.2% | % TRPG0→3 hr (plasma glucose; [5]): 10.5 ± 1.5% | AACE0→t (plasma glucose; [5]): 1892 ± 989 μU · min/ml | T % MPGC (plasma glucose; [5]): 180 | % TRPG0→3 hr (plasma glucose; spray-IT, porcine insulin 0.01 mg/kg, Table 3, listed as insulin): 10.5% | % MPGC (plasma glucose; [6]): 35.69% | % TRPG0→3 hr (plasma glucose; [6]): 47.2 ± 9.5% | AACE0→t (plasma glucose; [6]): 8497 ± 1716 μU · min/ml | T % MPGC (plasma glucose; [6]): 120 | % MPGC (plasma glucose; [7]): 35.3% | % TRPG0→3 hr (plasma glucose; [7]): 50.5 ± 12.7% | AACE0→t (plasma glucose; [7]): 9102 ± 2295 μU · min/ml | T % MPGC (plasma glucose; [7]): 120 | % MPGC (plasma glucose; [8]): 30.6% | % TRPG0→3 hr (plasma glucose; [8]): 54.5 ± 6.5% | AACE0→t (plasma glucose; [8]): 10205 ± 1173 μU · min/ml | T % MPGC (plasma glucose; [8]): 60 | % MPGC (plasma glucose; [9]): 13.1% | % TRPG0→3 hr (plasma glucose; [9]): 73.7 ± 3.1% | AACE0→t (plasma glucose; [9]): 13266 ± 570 μU · min/ml | T % MPGC (plasma glucose; [9]): 120 | % TRPG0→3 hr (plasma glucose; spray-IT, porcine insulin 1.0 mg/kg, Table 3, listed as insulin): 73.7%

Cc1ccc(C(=O)NCCCCCCCC(=O)O)c(O)c1 [Carrier D, N-(4-methylsalicyloyl)-8-aminocaprylic acid]
Cmax (serum insulin) [2]: 58.8 ± 12.0 μU/ml | melting point: 113 to 114 °C

CC(C(=O)O)c1ccc(NC(=O)c2ccccc2O)cc1 (stereo not drawn) [Carrier B, 2-(4-(N-salicyloyl)aminophenyl) propionic acid]
Cmax (serum insulin) [2]: 44.6 ± 10.0 μU/ml

COc1cccc(C(=O)Nc2ccc(CCC(=O)[O-])cc2)c1OC.[Na+] [Carrier C sodium salt]
Cmax (serum insulin) [2]: 22.5 ± 4.0 μU/ml

CC(C(=O)[O-])c1ccc(NC(=O)c2ccccc2O)cc1.[Na+] (stereo not drawn) [Sodium Salt of Carrier B, Sodium 2-(4-(N-salicyloyl)aminophenyl)propionate]
solubility (Solubility of carriers): 200 mg/mL
